Data reported in patent publication US10222368B2 (priority 2012, dated 2019).

Molecular target: T1, mu opiate receptor (MOR) (Rattus norvegicus, UniProt P33535)
T1 construct: from tissue; host or cells: striatal tissue (membrane preparation)
Assay: MOR agonist activity using [35S]GTPγS binding assay in striatal membranes
Type: biochemical
Conditions: for MOR agonist activity, [35S]GTPγS binding, FLNA-binding compound as agonist at 0.1 μM / MOR agonist activity, [35S]GTPγS binding, 1 μM + BFNA / MOR agonist activity, [35S]GTPγS binding, FLNA-binding compound as agonist at 1 μM: striatal membranes; for MOR agonist activity, [35S]GTPγS binding, FLNA-binding compound as agonist at 0.1 μM / MOR agonist activity, [35S]GTPγS binding, FLNA-binding compound as agonist at 1 μM: Series C-2; for MOR agonist activity, [35S]GTPγS binding, 1 μM + BFNA: 1 μM compound + 1 μM β-FNA (MOR antagonist); for MOR agonist activity, [35S]GTPγS binding, FLNA-binding compound as agonist at 1 μM / % DAMGO (1 μM): 1 μM compound
Description: To assess the mu opiate receptor (MOR) agonist activity of positive compounds from the FLNA screening, compounds were tested in a [^35S]GTPγS binding assay using striatal membranes. […] This assay measures a functional consequence of receptor occupancy at one of the earliest receptor-mediated events. The assay permits for traditional pharmacological parameters of potency, efficacy and antagonist affinity, with the advantage that agonist measures are not subjected to amplification or other modulation that may occur when analyzing parameters further downstream of the receptor.
Thus, striatal tissue was homogenized in 10 volumes of ice cold 25 mM HEPES buffer, pH 7.4, which contained 1 mM EGTA, 100 mM sucrose, 50 μg/ml leupeptin, 0.04 mM PMSF, 2 μg/ml soybean trypsin inhibitor and 0.2% 2-mercaptoethanol. The homogenates were centrifuged at 800×g for 5 minutes and the supernatants were centrifuged at 49,000×g for 20 minutes.
The resultant striatal membrane preparation (200 μg) was admixed and maintained (incubated) at 30° C. for 5 minutes in reaction buffer as above that additionally contained 1 mM MgCl2 and 0.5 nM [^35S]GTPγS (0.1 μCi/assay, PerkinElmer Life and Analytical Sciences) in a total volume of 250 μl and continued for 5 minutes in the absence or presence of 0.1-10 μM of an assayed compound of interest. The reaction was terminated by dilution with 750 μl of ice-cold reaction buffer that contained 20 mM MgCl2 and 1 mM EGTA and immediate centrifugation at 16,000×g for 5 minutes.
Normal rabbit serum (1 μl) was added to 1 ml of lysate and incubated at 25° C. for 30 minutes. Nonspecific immune complexes were removed by incubation with 25 μl of protein A/G-conjugated agarose beads at 25° C. for 30 minutes followed by centrifugation at 5,000×g at 4° C. for 5 minutes. The supernatant was divided and separately incubated at 25° C. for 30 minutes with antibodies raised against Gαo proteins (1:1,000 dilutions).
The immunocomplexes so formed were collected by incubation at 25° C. for 30 minutes with 40 μl of agarose-conjugated protein A/G beads and centrifugation at 5,000×g at 4° C. for 5 minutes. The pellet was washed and suspended in buffer containing 50 mM Tris-HCl, pH 8.0, and 1% NP-40. The radioactivity in the suspension was determined by liquid scintillation spectrometry.

[1] = 0.1 μM compound, relative to DAMGO

T1 sequence (P33535 whole entry): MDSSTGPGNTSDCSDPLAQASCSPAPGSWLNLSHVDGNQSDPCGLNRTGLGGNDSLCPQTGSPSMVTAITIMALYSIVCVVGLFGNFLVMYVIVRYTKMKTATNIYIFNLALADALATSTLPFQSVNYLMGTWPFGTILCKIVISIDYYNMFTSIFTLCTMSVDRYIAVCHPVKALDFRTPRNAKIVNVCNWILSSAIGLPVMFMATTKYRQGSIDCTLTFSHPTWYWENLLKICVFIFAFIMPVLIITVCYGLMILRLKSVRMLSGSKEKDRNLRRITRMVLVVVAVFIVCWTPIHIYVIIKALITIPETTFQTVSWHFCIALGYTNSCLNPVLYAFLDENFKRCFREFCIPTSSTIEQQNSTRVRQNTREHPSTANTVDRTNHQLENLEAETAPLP

Row | Compound | MOR agonist activity, [35S]GTPγS binding, FLNA-binding compound as agonist at 0.1 μM (0.1 μM compound) | MOR agonist activity, [35S]GTPγS binding, 1 μM + BFNA | MOR agonist activity, [35S]GTPγS binding, FLNA-binding compound as agonist at 1 μM | % DAMGO + BFNA (Series C-1, 1 μM compound + BFNA relative to DAMGO + BFNA) | % DAMGO (0.1 μM) (Series C-1, 0.1 μM compound relative to DAMGO (0.1 μM)) | % DAMGO (0.1 μM) [1] | % DAMGO (1 μM) (relative to DAMGO) | % DAMGO + BFNA (1 μM compound + BFNA, relative to DAMGO + BFNA)
1 | CC(=O)N1CCSC12CCN(S(=O)(=O)c1ccc([N+](=O)[O-])cc1)CC2 [Compound C0050] | 110.3% | 59.0% | 127.6% |  |  |  |  | 
2 | CC(=O)c1ccc(C(=O)N2CCC3(CC2)OCCN3S(=O)(=O)c2ccc(C(C)=O)cc2)cc1 [Compound C0052] |  |  |  | 97.0% |  |  |  | 
3 | CC(=O)c1ccc(C(=O)N2CCC3(CC2)OCCN3C(=O)c2ccc(C(C)=O)cc2)cc1 [Compound C0054] |  |  |  |  | 47.0% |  |  | 
4 | CC(=O)c1ccc(S(=O)(=O)N2CCC3(CC2)OCCN3S(C)(=O)=O)cc1 [Compound C0056] | 98.6% | 86.3% | 193.4% |  |  | 68.0% | 83.0% | 
5 | CC(=O)c1ccc(S(=O)(=O)N2CCC3(CC2)NCCS3)cc1 [Compound C0060] | 166.5% | 143.9% | 218.9% |  |  |  |  | 
6 | CC(=O)c1ccc(S(=O)(=O)N2CC(=O)NC23CCNCC3)cc1 [Compound C0086M] | 206.8% | 152.3% | 265.3% |  |  |  |  | 
7 | CC(=O)c1ccc(S(=O)(=O)N2CCC3(CC2)NC(=O)CO3)cc1 [Compound C0087M] | 262.8% | 142.5% | 329.6% |  |  | 138.9% | 132.8% | 293.8%
8 | COc1ccc(S(=O)(=O)N2CCOC23CCN(C)CC3)cc1 [Compound C0088M] | 276.3% | 177.1% | 355.3% |  |  |  |  | 
9 | CCN1CCC2(CC1)OCCN2S(=O)(=O)c1ccc(OC)cc1 [Compound C0089M] | 234.5% | 81.9% | 295.3% |  |  |  |  | 
10 | COc1ccc(S(=O)(=O)N2CCOC23CCN(CC2CC2)CC3)cc1 [Compound C0090M] | 237.0% | 41.0% | 341.0% |  |  |  |  | 
11 | C=CCN1CCC2(CC1)OCCN2S(=O)(=O)c1ccc(OC)cc1 [Compound C0091M] | 207.9% | 80.8% | 274.4% |  |  |  |  | 
12 | CC(=O)c1ccc(S(=O)(=O)N2CCOC23CCN(C)CC3)cc1 [Compound C0093M] | 140.0% | 44.0% | 211.8% |  |  |  |  | 
13 | CCN1CCC2(CC1)OCCN2S(=O)(=O)c1ccc(C(C)=O)cc1 [Compound C0094M] | 172.5% | 115.3% | 263.5% |  |  |  |  | 
14 | CC(=O)c1ccc(S(=O)(=O)N2CCOC23CCN(CC2CC2)CC3)cc1 [Compound C0095M] | 189.1% | 107.7% | 224.6% |  |  |  |  | 
15 | C=CCN1CCC2(CC1)OCCN2S(=O)(=O)c1ccc(C(C)=O)cc1 [Compound C0096M] | 186.4% | 127.1% | 328.9% |  |  |  | 130.0% | 
16 | CCOC(=O)CN1CCC2(CC1)OCCN2S(=O)(=O)c1ccc(C(C)=O)cc1 [Compound C0099M] | 157.2% | 114.7% | 195.7% |  |  |  | 88.0% | 
17 | CC(=O)c1ccc(S(=O)(=O)N2CCOC23CCN(CC(=O)O)CC3)cc1 [Compound C0100M] | 173.6% | 195.6% | 245.9% |  |  |  |  | 
18 | CCCCN1CCC2(CC1)OCCN2S(=O)(=O)c1ccc(C(C)=O)cc1 [Compound C0101M] | 138.2% | 174.8% | 274.3% |  |  |  |  | 
19 | CCCCN1CCC2(CC1)OCCN2S(=O)(=O)c1ccc(OC)cc1 [Compound C0102M] | 131.8% | 150.4% | 272.0% |  |  |  |  | 
20 | CN1CCC2(CC1)NC(=O)CN2Cc1ccccc1 [Compound C0104M] | 188.2% | 143.8% | 238.9% |  |  |  |  | 
21 | CN1CCC2(CC1)OCCN2S(=O)(=O)c1ccc(S(C)(=O)=O)cc1 [Compound C0106M] | 171.8% | 117.2% | 240.7% |  |  |  |  | 
22 | CC(=O)c1ccc(S(=O)(=O)N2CC(CN(C)C)OC23CCN(C)CC3)cc1 (stereo not shown) [Compound C0108M] | 205.6% | 76.9% | 258.5% |  |  |  |  | 
23 | O=C1CN(Cc2ccccc2)C2(CCNCC2)N1 [Compound C0115M] | 177.2% | 118.4% | 226.8% |  |  |  |  | 
24 | CS(=O)(=O)c1ccc(S(=O)(=O)N2CCOC23CCNCC3)cc1 [Compound C0116M] | 258.4% | 152.0% | 302.8% |  |  |  |  | 
25 | CC(=O)c1ccc(S(=O)(=O)N2CC(CN(C)C)OC23CCNCC3)cc1 (stereo not shown) [Compound C0118M] | 166.2% | 79.2% | 261.5% |  |  |  |  | 
26 | CC(=O)c1ccc(S(=O)(=O)N2C(Cc3c[nH]cn3)C(=O)NC23CCNCC3)cc1 (stereo not shown) [Compound C0119M] | 105.7% | 35.1% | 167.8% |  |  |  | 83.0% | 
27 | O=C1CN(Cc2ccccc2)C2(CCN(CC3CC3)CC2)N1 [Compound C0125M] | 168.6% | 159.7% | 195.2% |  |  |  |  | 
28 | CS(=O)(=O)c1ccc(S(=O)(=O)N2CCOC23CCN(CC2CC2)CC3)cc1 [Compound C0126M] | 181.8% | 108.5% | 265.3% |  |  |  |  | 
29 | CC(=O)c1ccc(S(=O)(=O)N2CC(CN(C)C)OC23CCN(CC2CC2)CC3)cc1 (stereo not shown) [Compound C0128M] | 197.8% | 63.9% | 286.0% |  |  |  |  | 
30 | COc1ccc(S(=O)(=O)N2CCOC23CCN(C(C)C)CC3)cc1 [Compound C0133M] | 139.4% | 72.4% | 214.8% |  |  |  |  | 
